{"source": "patent US20230374007A1", "about": "“COMPOUNDS AND THEIR USE IN TREATING CANCER” (AstraZeneca AB, priority 2020, published 2023)", "data": [{"target": "T1, cereblon (CRBN)—DNA damage protein 1 (DDB1) complex (Homo sapiens, UniProt Q96SW2)", "T1 construct": "encoding amino acid residues 1 to 442 (Uniprot Q96SW2); hexahistidine (N); thrombin cleavage site (N); made in house; host or cells: Sf9 insect cells (baculovirus co-infection)", "T1 sequence (Q96SW2 with tags, fused parts or gaps)": "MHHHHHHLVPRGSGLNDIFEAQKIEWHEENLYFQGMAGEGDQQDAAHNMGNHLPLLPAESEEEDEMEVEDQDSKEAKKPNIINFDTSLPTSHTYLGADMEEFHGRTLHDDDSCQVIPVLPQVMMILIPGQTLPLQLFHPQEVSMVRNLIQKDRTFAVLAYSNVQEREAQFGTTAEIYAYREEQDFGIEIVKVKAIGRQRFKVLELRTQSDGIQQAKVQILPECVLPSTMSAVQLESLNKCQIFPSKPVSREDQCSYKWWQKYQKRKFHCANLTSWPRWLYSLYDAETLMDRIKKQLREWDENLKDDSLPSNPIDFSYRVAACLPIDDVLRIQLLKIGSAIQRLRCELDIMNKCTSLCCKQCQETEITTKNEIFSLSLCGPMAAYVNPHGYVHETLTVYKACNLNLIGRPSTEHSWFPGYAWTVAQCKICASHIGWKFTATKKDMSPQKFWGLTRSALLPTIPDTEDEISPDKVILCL", "experiment": "Cereblon HTRF binding assay", "source_text": "The synthesized sequence was designed to encode an N-terminal hexahistidine tag, a thrombin cleavage site, an AviTag™ and a tobacco etch virus protease (TEV) cleavage site followed by the CBRN sequence. The resulting protein sequence is listed below.\nThe synthesized sequence was designed to encode an N-terminal hexahistidine tag, a tobacco etch virus protease (TEV) cleavage site followed by the DDB1 sequence. […] The linker amino acid residues are underlined and shown in italics.\nBaculovirus production of CBRN and DDB1: Recombinant bacmid and P2 virus of CBRN and DDB1 was generated according to the Bac-to-Bac Baculovirus Expression System manual (ThermoFisher Scientific).\nProtein Purification: Protein purification was initiated by thawing cells (resuspended in Lysis buffer) at r.t. Once thawed, NaCl was added to a final concentration of 200 mM, followed by 0.01 μL/mL Benzonase™ and the lysate was incubated with slow stirring for 20 minutes. After the freeze-thaw lysis, the whole cell lysate was centrifuged at 48 000 g for 45 minutes and all following purification steps were done on ice or in cold-room. Supernatant (cell lysate) was mixed with 1 mL/50 mL lysate Ni Sepharose™ 6 Fast Flow (Cytiva) pre-equilibrated with Wash buffer (50 mM Tris-Cl pH 8, 20 mM Imidazole, 500 mM NaCl, 10% Glycerol, 1 mM TCEP) and incubated with slow stirring for 1 h. The mix was loaded in a 70 mL open gravity flow column, washed with 10 bed volumes of Wash buffer, and stepwise eluted with 300 mM imidazole in Wash buffer. […] After biotinylation, the CBRN/DDB1 complex was purified by Size Exclusion Chromatography on a HiLoad™ 26/60 Superdex™ 200 column equilibrated in SEC buffer (50 mM HEPES pH 7.5, 200 mM NaCl, 5% glycerol, 1 mM TCEP) before flash-freezing in liquid nitrogen and storage at −80° C.\nThe assay mixture in a total volume of 4 μL consists of 50 mM Tris-HCl at pH 7.5, 100 mM NaCl, 0.01% Pluronic F127, 1 mM TCEP, 500 μM EDTA, 0.2 nM CRBN-DDB1, 0.2 nM terbium cryptate labeled streptavidin, and 2 nM Cyanine 5-labeled lenalidomide as the probe. […] Reagents were dispensed into the 384-well assay microplate using a Certus Flex liquid dispenser. After incubation for 2 h at r.t., the assay plates were read on a PHERAstar FSX plate reader (BMG Labtech) in the HTRF mode. The raw data from PHERAstar was directly imported into Genedata Screener for analysis. […] The ratio was normalized to positive and negative controls on the same plates to calculate percent inhibition: I %=(I−NC)/(PC−NC), where I are readings from the compound treated well, NC and PC are average readings from negative control wells and positive control wells, respectively. IC50 values were obtained by fitting the I % vs. compound concentration [I] to I %=S0+(SInf−S0)/(1+((IC50/[I])^n)), where S0 is the fitted activity level at zero concentration of test compound, SInf is the fitted activity level at […] concentration of test compound, and n is the hill coefficient of the curve.\nThe IC50 values reported below are the calculated mean result of one or more experiments.", "units": {"IC50": "nM"}, "values": [{"smiles": "Cn1cc(N2CCNCC2)c2ccc(N3CCC(=O)NC3=O)cc21", "note": "[Example 74, 1-(1-Methyl-3-(piperazin-1-yl)-1H-indol-6-yl)dihydropyrimidine-2,4 (1H,3H)-dione]", "IC50": 3810}, {"smiles": "CN1CCc2ccc(N3CCC(=O)NC3=O)cc21", "note": "[Example 23, 1-(1-Methylindolin-6-yl)dihydropyrimidine-2,4 (1H,3H)-dione]", "IC50": 1060}, {"smiles": "CN1CCC(c2cc3ccc(N4CCC(=O)NC4=O)cc3n2C)CC1", "note": "[Example 85, 1-(1-Methyl-2-(1-methylpiperidin-4-yl)-1H-indol-6-yl)dihydropyrimidine-2,4 (1H,3H)-dione]", "IC50": 195}, {"smiles": "CNC(=O)Cc1c[nH]c2cc(N3CCC(=O)NC3=O)ccc12", "note": "[Example 66, 2-(6-(2,4-Dioxotetrahydropyrimidin-1 (2H)-yl)-1H-indol-3-yl)-N-methylacetamide]", "IC50": 264}, {"smiles": "CC(=O)N1CCC(n2ccc3cc(N4CCC(=O)NC4=O)ccc32)CC1", "note": "[Example 115, 1-(1-(1-Acetylpiperidin-4-yl)-1H-indol-5-yl)dihydropyrimidine-2,4 (1H,3H)-dione]", "IC50": 933}, {"smiles": "O=C1CCN(c2ccc3c(c2)CCN3)C(=O)N1", "note": "[Example 20, 1-(Indolin-5-yl)dihydropyrimidine-2,4 (1H,3H)-dione]", "IC50": 357}, {"smiles": "CN1CCC(n2ccc3ccc(N4CCC(=O)NC4=O)cc32)CC1", "note": "[Example 121, 1-(1-(1-Methylpiperidin-4-yl)-1H-indol-6-yl)dihydropyrimidine-2,4 (1H,3H)-dione]", "IC50": 3840}, {"smiles": "CN1CCCc2cc(N3CCC(=O)NC3=O)ccc21", "note": "[Example 27, 1-(1-Methyl-1,2,3,4-tetrahydroquinolin-6-yl)dihydropyrimidine-2,4 (1H,3H)-dione]", "IC50": 1040}, {"smiles": "O=C1CCN(c2ccc3c(c2)CCCN3)C(=O)N1", "note": "[Example 26, 1-(1,2,3,4-Tetrahydroquinolin-6-yl)dihydropyrimidine-2,4 (1H,3H)-dione]", "IC50": 1490}, {"smiles": "O=C1CCN(c2cccc3ncsc23)C(=O)N1", "note": "[Example 2, 1-(Benzo[d]thiazol-7-yl)dihydropyrimidine-2,4 (1H,3H)-dione]", "IC50": 2000}, {"smiles": "O=C(O)Cc1c[nH]c2cc(N3CCC(=O)NC3=O)ccc12", "note": "[Example 65, 2-(6-(2,4-Dioxotetrahydropyrimidin-1 (2H)-yl)-1H-indol-3-yl)acetic acid]", "IC50": 755}, {"smiles": "CN1CCC(n2ccc3cc(N4CCC(=O)NC4=O)ccc32)CC1", "note": "[Example 114, 1-(1-(1-Methylpiperidin-4-yl)-1H-indol-5-yl)dihydropyrimidine-2,4 (1H,3H)-dione]", "IC50": 1050}, {"smiles": "O=C1CCN(c2ccc3ccoc3c2)C(=O)N1", "note": "[Example 1, 1-(Benzofuran-6-yl)dihydropyrimidine-2,4 (1H,3H)-dione]", "IC50": 2100}, {"smiles": "O=C1CCN(c2ccc3cn(C4CCNCC4)nc3c2)C(=O)N1", "note": "[Example 109, 1-(2-(Piperidin-4-yl)-2H-indazol-6-yl)dihydropyrimidine-2,4 (1H,3H)-dione]", "IC50": 1030}, {"smiles": "Cc1c(N2CCC(=O)NC2=O)ccc2cc[nH]c12", "note": "[Example 57, 1-(7-Methyl-1H-indol-6-yl)dihydropyrimidine-2,4 (1H,3H)-dione]", "IC50": 96}, {"smiles": "Cn1c(C2CCNCC2)cc2c(N3CCC(=O)NC3=O)cccc21", "note": "[Example 88, 1-(1-Methyl-2-(piperidin-4-yl)-1H-indol-4-yl)dihydropyrimidine-2,4 (1H,3H)-dione]", "IC50": 679}, {"smiles": "O=C1CCN(c2c(Cl)ccc3[nH]ccc23)C(=O)N1", "note": "[Example 64, 1-(5-Chloro-1H-indol-4-yl)dihydropyrimidine-2,4 (1H,3H)-dione]", "IC50": 78}, {"smiles": "CN1CCC(n2ncc3cc(N4CCC(=O)NC4=O)ccc32)CC1", "note": "[Example 108, 1-(1-(1-Methylpiperidin-4-yl)-1H-indazol-5-yl)dihydropyrimidine-2,4 (1H,3H)-dione]", "IC50": 3810}, {"smiles": "Cn1cc(N2CCNCC2)c2cc(N3CCC(=O)NC3=O)ccc21", "note": "[Example 76, 1-(1-Methyl-3-(piperazin-1-yl)-1H-indol-5-yl)dihydropyrimidine-2,4 (1H,3H)-dione]", "IC50": 1920}, {"smiles": "O=C1CCN(c2ccc3cc[nH]c3c2F)C(=O)N1", "note": "[Example 54, 1-(7-Fluoro-1H-indol-6-yl)dihydropyrimidine-2,4 (1H,3H)-dione]", "IC50": 188}, {"smiles": "CN1CCC(c2c[nH]c3cc(N4CCC(=O)NC4=O)ccc23)CC1", "note": "[Example 117, 1-(3-(1-Methylpiperidin-4-yl)-1H-indol-6-yl)dihydropyrimidine-2,4 (1H,3H)-dione]", "IC50": 2160}, {"smiles": "O=C1CCN(c2cnc3ccoc3c2)C(=O)N1", "note": "[Example 37, 1-(Furo[3,2-b]pyridin-6-yl)dihydropyrimidine-2,4 (1H,3H)-dione]", "IC50": 3100}, {"smiles": "CN1CCC(n2cc3ccc(N4CCC(=O)NC4=O)cc3n2)CC1", "note": "[Example 110, 1-(2-(1-Methylpiperidin-4-yl)-2H-indazol-6-yl)dihydropyrimidine-2,4 (1H,3H)-dione]", "IC50": 655}, {"smiles": "CC(=O)N1CCC(c2c[nH]c3cc(N4CCC(=O)NC4=O)ccc23)CC1", "note": "[Example 118, 1-(3-(1-Acetylpiperidin-4-yl)-1H-indol-6-yl)dihydropyrimidine-2,4 (1H,3H)-dione]", "IC50": 389}, {"smiles": "O=C1CCN(c2cccc3c2CNC3=O)C(=O)N1", "note": "[Example 43, 1-(1-Oxoisoindolin-4-yl)dihydropyrimidine-2,4 (1H,3H)-dione]", "IC50": 3630}, {"smiles": "COc1cc(N2CCC(=O)NC2=O)cc2[nH]ccc12", "note": "[Example 52, 1-(4-Methoxy-1H-indol-6-yl)dihydropyrimidine-2,4 (1H,3H)-dione]", "IC50": 445}, {"smiles": "N#Cc1ncc(N2CCC(=O)NC2=O)c2cc[nH]c12", "note": "[Example 135, 4-(2,4-dioxotetrahydropyrimidin-1 (2H)-yl)-1H-pyrrolo[2,3-c]pyridine-7-carbonitrile]", "IC50": 594}, {"smiles": "O=C1CCN(c2ccc3ncsc3c2)C(=O)N1", "note": "[Example 9, 1-(Benzo[d]thiazol-6-yl)dihydropyrimidine-2,4 (1H,3H)-dione]", "IC50": 5350}, {"smiles": "CC(=O)N1CCN(c2c[nH]c3ccc(N4CCC(=O)NC4=O)cc23)CC1", "note": "[Example 79, 1-(3-(4-Acetylpiperazin-1-yl)-1H-indol-5-yl)dihydropyrimidine-2,4 (1H,3H)-dione]", "IC50": 1980}, {"smiles": "O=C1CCN(c2ccc3oc(=O)[nH]c3c2)C(=O)N1", "note": "[Example 47, 1-(2-Oxo-2,3-dihydrobenzo[d]oxazol-5-yl)dihydropyrimidine-2,4 (1H,3H)-dione]", "IC50": 3060}, {"smiles": "CNC(=O)CCn1ccc2ccc(N3CCC(=O)NC3=O)cc21", "note": "[Example 69, 3-(6-(2,4-Dioxotetrahydropyrimidin-1 (2H)-yl)-1H-indol-1-yl)-N-methylpropanamide]", "IC50": 3540}, {"smiles": "Cn1ccc2cc(N3CCC(=O)NC3=O)cnc21", "note": "[Example 11, 1-(1-Methyl-1H-pyrrolo[2,3-b]pyridin-5-yl)dihydropyrimidine-2,4 (1H,3H)-dione]", "IC50": 26900}, {"smiles": "COc1cc2cc[nH]c2cc1N1CCC(=O)NC1=O", "note": "[Example 61, 1-(5-Methoxy-1H-indol-6-yl)dihydropyrimidine-2,4 (1H,3H)-dione]", "IC50": 1510}, {"smiles": "CC(=O)N1CCC(c2cc3ccc(N4CCC(=O)NC4=O)cc3[nH]2)CC1", "note": "[Example 83, 1-(2-(1-Acetylpiperidin-4-yl)-1H-indol-6-yl)dihydropyrimidine-2,4 (1H,3H)-dione]", "IC50": 113}, {"smiles": "O=C1CCN(c2ccc(N3CCNCC3)c3[nH]ccc23)C(=O)N1", "note": "[Example 123, 1-(7-(Piperazin-1-yl)-1H-indol-4-yl)dihydropyrimidine-2,4 (1H,3H)-dione]", "IC50": 597}, {"smiles": "O=C1CCN(c2cccc3ncoc23)C(=O)N1", "note": "[Example 4, 1-(Benzo[d]oxazol-7-yl)dihydropyrimidine-2,4 (1H,3H)-dione]", "IC50": 3880}, {"smiles": "O=C1CCN(c2cc(F)c3cc[nH]c3c2)C(=O)N1", "note": "[Example 50, 1-(4-Fluoro-1H-indol-6-yl)dihydropyrimidine-2,4 (1H,3H)-dione]", "IC50": 226}, {"smiles": "O=C1CCN(c2ccc3sc(N4CCNCC4)nc3c2)C(=O)N1", "note": "[Example 100, 1-(2-(Piperazin-1-yl)benzo[d]thiazol-5-yl)dihydropyrimidine-2,4 (1H,3H)-dione]", "IC50": 1070}]}]}
